According to article PMC4891385 (Clinical Drug Investigation, 2016):

Assays:
Format in all cases: in vitro ADME
[1] = molecular target: T1, OAT1 (Homo sapiens, UniProt Q4U2R8); experiment: [14C]-lesinurad uptake, substrate test, OAT1 oocytes
T1 sequence (Q4U2R8 1-563): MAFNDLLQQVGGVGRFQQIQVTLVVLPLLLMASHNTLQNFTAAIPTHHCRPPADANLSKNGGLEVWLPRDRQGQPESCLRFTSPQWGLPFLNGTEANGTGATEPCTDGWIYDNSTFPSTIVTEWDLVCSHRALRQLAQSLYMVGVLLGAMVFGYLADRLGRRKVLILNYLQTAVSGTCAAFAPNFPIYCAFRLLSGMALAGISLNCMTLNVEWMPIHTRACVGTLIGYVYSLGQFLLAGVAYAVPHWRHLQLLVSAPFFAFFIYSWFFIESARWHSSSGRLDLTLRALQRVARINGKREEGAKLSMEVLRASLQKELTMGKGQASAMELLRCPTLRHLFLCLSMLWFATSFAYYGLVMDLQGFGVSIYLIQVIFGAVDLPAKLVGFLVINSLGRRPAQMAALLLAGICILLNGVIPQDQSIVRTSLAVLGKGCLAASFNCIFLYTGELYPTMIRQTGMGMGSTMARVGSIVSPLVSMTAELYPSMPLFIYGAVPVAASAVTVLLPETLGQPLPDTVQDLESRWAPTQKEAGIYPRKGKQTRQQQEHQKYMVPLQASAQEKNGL

[2] = molecular target: T2, OATP1B3 (Homo sapiens, UniProt Q9NPD5); experiment: [14C]-lesinurad uptake, substrate test, hOATP1B3 MDCK-II cells
T2 sequence (Q9NPD5 1-702): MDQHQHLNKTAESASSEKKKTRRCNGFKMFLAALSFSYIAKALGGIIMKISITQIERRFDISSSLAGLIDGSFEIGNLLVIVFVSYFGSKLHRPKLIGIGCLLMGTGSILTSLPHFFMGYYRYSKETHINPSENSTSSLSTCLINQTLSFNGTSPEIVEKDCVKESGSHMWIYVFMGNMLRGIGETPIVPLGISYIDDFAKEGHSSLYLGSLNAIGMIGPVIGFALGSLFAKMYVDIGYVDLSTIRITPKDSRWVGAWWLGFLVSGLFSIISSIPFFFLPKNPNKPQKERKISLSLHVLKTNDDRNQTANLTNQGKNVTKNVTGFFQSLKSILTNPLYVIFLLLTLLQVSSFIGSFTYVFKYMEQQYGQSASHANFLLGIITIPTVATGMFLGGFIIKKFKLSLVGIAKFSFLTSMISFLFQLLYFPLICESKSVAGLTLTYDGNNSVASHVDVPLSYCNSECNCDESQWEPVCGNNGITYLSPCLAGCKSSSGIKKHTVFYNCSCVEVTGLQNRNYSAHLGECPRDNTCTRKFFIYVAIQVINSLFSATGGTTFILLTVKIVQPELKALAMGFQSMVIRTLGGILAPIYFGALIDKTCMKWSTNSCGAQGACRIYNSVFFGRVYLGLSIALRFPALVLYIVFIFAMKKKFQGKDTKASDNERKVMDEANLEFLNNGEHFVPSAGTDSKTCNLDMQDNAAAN

[3] = molecular target: T3, BCRP (Homo sapiens, UniProt Q9UNQ0); experiment: [14C]-lesinurad substrate test, BCRP in Caco-2 cells
T3 sequence (Q9UNQ0 1-655): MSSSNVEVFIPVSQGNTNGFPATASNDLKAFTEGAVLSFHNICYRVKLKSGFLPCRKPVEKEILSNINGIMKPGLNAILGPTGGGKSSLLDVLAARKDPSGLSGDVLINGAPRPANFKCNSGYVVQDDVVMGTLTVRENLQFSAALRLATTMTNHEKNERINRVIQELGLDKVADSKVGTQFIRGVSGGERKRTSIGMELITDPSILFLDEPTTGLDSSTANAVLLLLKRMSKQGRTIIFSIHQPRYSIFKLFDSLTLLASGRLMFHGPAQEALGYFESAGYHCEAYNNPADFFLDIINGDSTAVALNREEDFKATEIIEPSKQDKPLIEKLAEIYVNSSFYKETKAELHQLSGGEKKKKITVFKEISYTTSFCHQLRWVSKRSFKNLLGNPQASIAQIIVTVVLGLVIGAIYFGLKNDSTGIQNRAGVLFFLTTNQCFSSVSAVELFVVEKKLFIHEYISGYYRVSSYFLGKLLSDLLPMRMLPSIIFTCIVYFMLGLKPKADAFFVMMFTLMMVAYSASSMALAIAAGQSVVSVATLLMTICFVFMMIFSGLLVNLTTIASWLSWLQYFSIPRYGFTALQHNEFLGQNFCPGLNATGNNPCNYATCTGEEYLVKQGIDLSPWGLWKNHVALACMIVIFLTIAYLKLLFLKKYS

Lesinurad as substrate [1]: substrate | Lesinurad as substrate [2]: not a substrate | Lesinurad as substrate [3]: minor substrate
SMILES: O=C(O)CSc1nnc(Br)n1-c1ccc(C2CC2)c2ccccc12 [lesinurad]
